The values below come from patent US8940900B2, “2,2,2-tri-substituted acetamide derivatives as glucokinase activators, their process and pharmaceutical application” (Advinus Therapeutics Private Limited, priority 2007, dated 2015).

One may read the EC50 as the concentration giving half of the maximal effect. What is called Emax is the greatest response seen or fitted, relative to the assay's reference. As usually defined, the melting point is the temperature, or range, at which the solid turns liquid.

Data set [1] has as its target T1, purified human recombinant GK (Homo sapiens, UniProt P35557).
T1 sequence (P35557 1-465): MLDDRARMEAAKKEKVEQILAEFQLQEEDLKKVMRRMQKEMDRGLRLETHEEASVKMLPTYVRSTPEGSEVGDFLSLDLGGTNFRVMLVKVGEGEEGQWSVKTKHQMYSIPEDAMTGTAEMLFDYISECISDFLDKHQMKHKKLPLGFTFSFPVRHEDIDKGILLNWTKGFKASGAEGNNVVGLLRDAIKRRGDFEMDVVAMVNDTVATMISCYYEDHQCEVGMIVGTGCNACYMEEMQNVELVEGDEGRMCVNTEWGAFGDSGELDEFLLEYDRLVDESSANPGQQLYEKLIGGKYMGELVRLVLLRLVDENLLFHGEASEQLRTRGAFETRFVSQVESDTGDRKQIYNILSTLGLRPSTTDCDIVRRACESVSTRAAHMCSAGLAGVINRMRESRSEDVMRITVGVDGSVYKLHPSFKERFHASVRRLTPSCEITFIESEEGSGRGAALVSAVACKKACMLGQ
Briefly: Characterization of partial glucokinase activators: dose dependent effect on % ΔS0.5 of glucokinase for glucose. In kind it is biochemical. As to conditions: for EC50: sigmoidal fit of % ΔS0.5 vs log concentration, read-out: EC50 (measured against % ΔS0.5); for Classification as partial or full GK activator: compared to Ro-28-1675, partial = S0.5 shift between 20% and 90%, full = 90% or more. On the procedure:
The ΔS0.5 is then normalized to a percent scale, where the S0.5 in the vehicle control is set to 0% and 0 mM glucose is set to 100%. […] The EC50 of % change in S0.5 is obtained from the sigmoidal fit of the data.
The change in the S0.5 of glucokinase (ΔS0.5) for glucose in the presence of Examples A11, O15 and J1 is calculated by subtracting the S0.5 at each concentration of each Example from the S0.5 in the vehicle control. The ΔS0.5 is then normalized to a percent scale, where the S0.5 in the vehicle control is set to 0% and 0 mM glucose is set to 100%. The % ΔS0.5 is then plotted against the log of the concentration of each Example.
FIG. 2B illustrates such a derived plot, taking S0.5 data from FIG. 2A.
(§1) Glucokinase (GK) activity, in vitro, has been measured using a coupled enzymatic assay (Ref: Hariharan et al (1997) Diabetes 46: 11-16). GK catalyzes the first step, the conversion of glucose to glucose-6-phosphate (G6P) in the presence of ATP. G6P in turn is converted by glucose-6-phosphate dehydrogenase (G6PD) to 6-phosphogluconate, a process that requires NAD, resulting in NADH formation. Since the GK-catalyzed step is the rate-limiting step of this coupled enzymatic process, the rate of accumulation of 6-phosphogluconate and NADH is directly proportional to the rate of glucose phosphorylation by GK. The rate of the GK-catalyzed reaction can therefore be measured by monitoring the increase in NADH absorbance at 340 nm.
(§2) The assay is carried out according to the protocol outlined in Hariharan et al (1997), Diabetes 46: 11-16. Briefly, the test compounds are incubated in a reaction mix containing 25 mM HEPES (pH 7.2), 10 mM MgCl2, 100 mM KCl, 5 mM ATP, 2 mM DTT, 0.5 mM NAD, 1 U/ml Leuconostoc mesenteroides G6PD, 0.3 U/ml of purified human recombinant GK, and different concentrations of glucose. Enzymatic activity is calculated from the initial reaction velocity, measured from the change in NADH absorbance as a function of time.
Compounds of interest are tested in GK assay to monitor dose dependent effect on Glucokinase activation (in kinetic mode), as described above, at various glucose concentration.

For data set [2], the target named is T1, purified human recombinant GK. Briefly: Glucokinase activity, coupled enzymatic assay (NADH absorbance at 340 nm). It is filed as biochemical. Conditions: 5 mM glucose; read-out: EC50 values for GK activation at 5 mM Glucose conc.
Text: as §1, §2
Compounds described in formula (I), in concentration ranges from 1.0 nM to 500 μM, are tested in purified human recombinant Glucokinase assay described above.
A compound is considered to be a glucokinase activator if it, in its testable range of concentrations, yields a higher rate of glucose phosphorylation than in its absence.

Where [3] appears, read: Table 3, vehicle S0.5 = 0%, 0 mM glucose = 100%.
Where [4] appears, read: Table 4, partial glucokinase activators.

As for `CC(Oc1ccc(F)cc1F)(C(=O)Nc1ncc(Cl)s1)c1ccc(S(=O)(=O)C2CC2)cc1` (stereo not drawn) [Example O15, N-(5-Chloro-thiazol-2-yl)-2-(4-cyclopropanesulfonyl-phenyl)-2-(2,4-difluoro-phenoxy)-propionamide], the EC50 in data set [1] (Table 3) was found to be 1.2 µM; in data set [2], 1.8 µM. Besides, the maximum response (Emax) in data set [1] (setting [3]) is 55%. Also, the “Classification as partial or full GK activator” value (shortened to “Classification”) in data set [1] is “partial GK activators”.

With `CC(C)(Oc1ccc(F)cc1F)C(=O)Nc1nc(CC(=O)Nc2ccc(F)cc2)cs1` [Example J1, 2-(2,4-Difluoro-phenoxy)-N-{4-[(4-fluoro-phenylcarbamoyl)-methyl]-thiazol-2-yl}-2-methyl-propionamide], the EC50 amounted to 3 µM in data set [1] (Table 3) and 4.5 µM in data set [2]. The Emax in data set [1] (setting [3]) came out at 55%. The “Classification” value in data set [1] is “partial GK activators”.

`CC(C)(Oc1ccc2ccccc2c1)C(=O)Nc1nccs1` [Example A5, 2-Methyl-2-(naphthalen-2-yloxy)-N-thiazol-2-yl-propionamide] displayed a melting point of 117 to 118 °C.

`CC(Oc1ccc(F)c(F)c1)(C(=O)Nc1ncc(Cl)s1)c1ccc(S(C)(=O)=O)cc1` (stereo not drawn) [Example O20, N-(5-Chloro-thiazol-2-yl)-2-(3,4-difluoro-phenoxy)-2-(4-methanesulfonyl-phenyl)-propionamide]: the Emax in data set [1] (setting [4]) was determined as 50%.

Take `CC(Oc1ccc(F)cc1F)(C(=O)Nc1ccc(C(=O)O)cn1)c1ccc(S(C)(=O)=O)cc1` (stereo not drawn) [Example P4, 6-[2-(2,4-Difluoro-phenoxy)-2-(4-methanesulfonyl-phenyl)-propionylamio]-nicotinic acid]: in data set [2], the EC50 was greater than 14 µM.

As to `CC(Oc1ccc(F)cc1F)(C(=O)Nc1ncc(Cl)s1)c1ccc(S(C)(=O)=O)cc1` (stereo not drawn) [Example O19, N-(5-Chloro-thiazol-2-yl)-2-(2,4-difluorophenoxy)-2-(4-methanesulfonyl-phenyl)-propionamide], the Emax in data set [1] (setting [4]) is 75%.

For the compound `CCC(C)(Oc1ccc(F)cc1F)C(=O)Nc1ncc(Cl)s1` (stereo not drawn) [Example G7, N-(5-Chloro-thiazol-2-yl)-2-(2,4-difluoro-phenoxy)-2-methyl-butyramide], the Emax in data set [1] (setting [4]) was determined as 60%. In addition, in data set [2], the EC50 was 7.1 µM.

In the case of `CC(C)(Oc1ccc(F)cc1F)C(=O)Nc1nc(CC(=O)Nc2ccc(F)cc2)c(Cl)s1` [Example J4, N-{5-Chloro-4-[(4-fluoro-phenylcarbamoyl)-methyl]-thiazol-2-yl}-2-(2,4-difluoro-phenoxy)-2-methyl-propionamide], in data set [1] (setting [4]), the Emax amounted to 50%.

In the case of `CC(Oc1ccc(Cl)cc1)(C(=O)Nc1ncc(Cl)s1)c1ccc(S(C)(=O)=O)cc1` (stereo not drawn) [Example O18, 2-(4-Chloro-phenoxy)-N-(5-chloro-thiazol-2-yl)-2-(4-methanesulfonyl-phenyl)-propionamide], in data set [1] (setting [4]), the Emax amounted to 60%.

Consider `CC(C)(Oc1ccc2c(c1)OCO2)C(=O)Nc1ncc(Cl)s1` [Example A10, 2-(Benzo[1,3]dioxol-5-yloxy)-N-(5-chloro-thiazol-2-yl)-2-methyl-propionamide], for which the Emax in data set [1] (setting [4]) turned out to be 75%. In addition, the concentration for a half-maximal effect (EC50) in data set [2] was 2.2 µM.

As for “2-(2,4-Difluoro-phenoxy)-2-methyl-N-(1H tetrazol-5-yl)-propionamide [Example A27]”, in data set [2], the EC50 is 7 µM.

`CC(C)(Oc1ccc(F)cc1F)C(=O)Nc1ncc(Cl)s1` [Example A11, N-(5-Chloro-thiazol-2-yl)-2-(2,4-difluoro-phenoxy)-2-methyl-propionamide]: the EC50 in data set [1] (Table 3) was 1.25 µM; in data set [2], 1.8 µM. For the same compound, the Emax in data set [1] (setting [3]) turned out to be 7%. Further, in data set [1], the “Classification” value is “partial GK activators”.

For `Cc1cnc(NC(=O)C(C)(Oc2ccc(F)cc2F)c2ccc(S(C)(=O)=O)cc2)s1` (stereo not drawn) [Example O16, 2-(2,4-Difluoro-phenoxy)-2-(4-methanesulfonyl-phenyl)-N-(5-methyl-thiazol-2-yl)-propionamide], the EC50 in data set [2] is 5.4 µM.
